Reference: ChEMBL document CHEMBL1201862, “PubChem BioAssay data set” (2004)
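Exposure lasted 48 hours, with cells grown in 96-well plates and compounds tested at five concentrations. Here, GI50 denotes the concentration required for 50% inhibition of growth.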 Calls of active or inactive are those of the source. Cut-off read from the data, not from the text of the source: active = GI50 up to about 1.1 µM and inactive = higher.

Legend:
Assay in all cases: growth of human tumour cells (NCI), 48 h
CCRF-CEM = tested on: CCRF-CEM
SR = tested on: SR
SN12C = tested on: SN12C
PC-3 = tested on: PC-3
HCT-116 = tested on: HCT-116
HCC 2998 = tested on: HCC 2998
NCI-H460 = tested on: NCI-H460
NCI/ADR-RES = tested on: NCI/ADR-RES
NCI-H226 = tested on: NCI-H226
DU-145 = tested on: DU-145
HOP-92 = tested on: HOP-92
M14 = tested on: M14
786-0 = tested on: 786-0
SK-MEL-28 = tested on: SK-MEL-28
COLO 205 = tested on: COLO 205
MCF7 = tested on: MCF7
HT-29 = tested on: HT-29
SK-OV-3 = tested on: SK-OV-3
ACHN = tested on: ACHN
SNB-19 = tested on: SNB-19

Measured: GI50

CCOc1ccc(/N=N/C2C(=O)N(C(=O)CC(=O)Nc3ccc(Cl)cc3)N=C2C)cc1 (stereo not given)
inactive: CCRF-CEM > 100 µM | SR > 100 µM | SN12C > 100 µM | PC-3 > 100 µM | HCT-116 > 100 µM | HCC 2998 > 100 µM | NCI-H460 > 100 µM | NCI/ADR-RES > 100 µM | NCI-H226 > 100 µM | DU-145 > 100 µM | HOP-92 > 100 µM | M14 > 100 µM | 786-0 > 100 µM | SK-MEL-28 > 100 µM | COLO 205 > 100 µM | MCF7 > 100 µM | HT-29 > 100 µM | SK-OV-3 > 100 µM | ACHN > 100 µM

CC(=O)OC/C=C(/C=C/CNC1CCCCC1)OC(C)=O
inactive: CCRF-CEM 4.34 µM | SR 10.7 µM | SN12C 16.7 µM | PC-3 17.3 µM | HCT-116 14.9 µM | HCC 2998 23.4 µM | NCI-H460 24.1 µM | NCI/ADR-RES 19.6 µM | NCI-H226 25.9 µM | SNB-19 24.5 µM | DU-145 17 µM | HOP-92 12.5 µM | M14 8.28 µM | 786-0 11.5 µM | SK-MEL-28 16.8 µM | COLO 205 13.9 µM | MCF7 22 µM | HT-29 18.6 µM | SK-OV-3 19.6 µM | ACHN 16.4 µM

CCc1n[nH]c(=O)n1N1C(=O)C2CCCCC2C1=O (stereo not given)
inactive: CCRF-CEM > 100 µM | SR > 100 µM | SN12C > 100 µM | PC-3 > 100 µM | HCT-116 > 100 µM | HCC 2998 > 100 µM | NCI/ADR-RES > 100 µM | NCI-H226 > 100 µM | DU-145 > 100 µM | HOP-92 > 100 µM | M14 > 100 µM | 786-0 > 100 µM | SK-MEL-28 > 100 µM | COLO 205 > 100 µM | MCF7 > 100 µM | HT-29 > 100 µM | SK-OV-3 > 100 µM | ACHN > 100 µM

CC(C)(C)c1cc(-c2cc(C(C)(C)C)n(-c3ccccc3)n2)nn1-c1ccccc1
inactive: CCRF-CEM > 100 µM | SR > 100 µM | SN12C > 100 µM | PC-3 65.6 µM | HCT-116 > 100 µM | HCC 2998 31.3 µM | NCI-H460 61.5 µM | NCI/ADR-RES > 100 µM | NCI-H226 > 100 µM | DU-145 > 100 µM | HOP-92 > 100 µM | M14 > 100 µM | 786-0 > 100 µM | SK-MEL-28 > 100 µM | COLO 205 48.6 µM | MCF7 > 100 µM | HT-29 68.9 µM | SK-OV-3 > 100 µM | ACHN 23.2 µM

C=C1C(=O)OC2CC(C)C3(O)CCC(=O)C3(C)CC12 (stereo not given)
inactive: CCRF-CEM 33.8 µM | SR 23.2 µM | SN12C 19.1 µM | PC-3 49 µM | HCT-116 31.1 µM | HCC 2998 23 µM | NCI/ADR-RES 32.4 µM | NCI-H226 64 µM | SNB-19 18.7 µM | DU-145 31.9 µM | HOP-92 57.1 µM | M14 22 µM | 786-0 21.3 µM | SK-MEL-28 54.8 µM | COLO 205 40 µM | MCF7 29.2 µM | HT-29 20.2 µM | SK-OV-3 46.8 µM | ACHN 17.5 µM

CCCCCCCCCCCCCCCCCCNc1nc(=O)n(C2CC(OP(=O)(O)OCC3OC(n4cc(F)c(=O)[nH]c4=O)CC3O)C(CO)O2)cc1F (stereo not given)
inactive: CCRF-CEM 12.9 µM | SR 4.86 µM | SN12C > 100 µM | PC-3 22.6 µM | HCT-116 47.1 µM | HCC 2998 5.97 µM | NCI/ADR-RES 30.3 µM | NCI-H226 98.4 µM | SNB-19 12.1 µM | DU-145 62.2 µM | HOP-92 5.33 µM | M14 19.5 µM | 786-0 49.4 µM | SK-MEL-28 27.1 µM | COLO 205 20.7 µM | MCF7 9.86 µM | HT-29 16.6 µM | SK-OV-3 31.7 µM | ACHN 11.2 µM

CC(=O)NC1C(OCc2ccccc2)OC(CO)C(O)C1OCC(=O)NC(C(=O)NC(CCC(=O)NCCCCCC(=O)Nc1ccc2c(c1)CN1C(=O)c3ccccc3C1=N2)C(N)=O)C(C)C (stereo not given)
inactive: CCRF-CEM > 100 µM | SR 88.1 µM | SN12C > 100 µM | PC-3 28.5 µM | HCT-116 36.2 µM | HCC 2998 35.6 µM | NCI-H460 20.8 µM | NCI/ADR-RES 45.8 µM | SNB-19 20.9 µM | DU-145 63.8 µM | HOP-92 95.7 µM | M14 40.6 µM | 786-0 16.4 µM | SK-MEL-28 20.8 µM | COLO 205 47 µM | MCF7 16.9 µM | HT-29 42.8 µM | SK-OV-3 18.8 µM | ACHN 46.3 µM

O=C(c1cc2c(c3ccccc13)NCCN=C2C(F)(F)F)C(F)(F)F
inactive: CCRF-CEM 17 µM | SR 3.94 µM | PC-3 14.6 µM | HCT-116 26.7 µM | HCC 2998 17.5 µM | NCI-H460 15.5 µM | NCI/ADR-RES 27 µM | NCI-H226 18.5 µM | DU-145 41.4 µM | HOP-92 21.9 µM | M14 24.9 µM | 786-0 20.8 µM | SK-MEL-28 18.9 µM | MCF7 19.2 µM | HT-29 11.6 µM | SK-OV-3 37.4 µM | ACHN 22.8 µM
